Assay results published in article PMC9782626, “Copper(II) Complexes of 5–Fluoro–Salicylaldehyde: Synthesis, Characterization, Antioxidant Properties, Interaction with DNA and Serum Albumins” (Molecules, 2022).
Read-outs that look alike come from different tables or passages of the source.

Experiments:
[1] = set-up: method as in PMID 35890184; details: cited from earlier work
[2] = set-up: method as in PMID 35890184; details: cited from earlier work; remark: listed apart in the source
[3] = set-up: method as in PMID 35890184; details: cited from earlier work; remark: listed apart in the source
CT DNA = details: cited from earlier work
[4] = tested on: EB–DNA conjugate (CT DNA); set-up: method as in PMID 35890184; details: cited from earlier work
[5] = target: T1, bovine serum albumin (BSA) (Bos taurus, UniProt P02769); set-up: method as in PMID 35890184; details: cited from earlier work
T1 construct: purchased Sigma–Aldrich Co
T1 sequence (P02769 25-607): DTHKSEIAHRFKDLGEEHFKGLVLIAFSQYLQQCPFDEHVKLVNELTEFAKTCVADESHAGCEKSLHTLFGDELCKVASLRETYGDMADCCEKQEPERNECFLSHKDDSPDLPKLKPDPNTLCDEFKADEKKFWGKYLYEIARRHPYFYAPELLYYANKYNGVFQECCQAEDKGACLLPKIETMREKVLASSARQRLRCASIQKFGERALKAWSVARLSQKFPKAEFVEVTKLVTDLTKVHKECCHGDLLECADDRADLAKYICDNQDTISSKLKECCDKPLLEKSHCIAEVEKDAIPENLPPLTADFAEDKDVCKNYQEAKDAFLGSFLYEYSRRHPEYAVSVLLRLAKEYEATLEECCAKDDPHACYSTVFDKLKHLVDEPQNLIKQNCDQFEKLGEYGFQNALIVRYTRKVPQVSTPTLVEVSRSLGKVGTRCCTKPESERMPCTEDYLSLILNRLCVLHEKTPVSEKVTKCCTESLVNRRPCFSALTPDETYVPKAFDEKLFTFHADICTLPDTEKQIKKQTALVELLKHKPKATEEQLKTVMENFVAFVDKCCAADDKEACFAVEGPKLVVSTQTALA

[6] = target: T2, human serum albumin (HSA) (Homo sapiens, UniProt P02768); set-up: method as in PMID 35890184; details: cited from earlier work
T2 construct: purchased Sigma–Aldrich Co
T2 sequence (P02768 25-609): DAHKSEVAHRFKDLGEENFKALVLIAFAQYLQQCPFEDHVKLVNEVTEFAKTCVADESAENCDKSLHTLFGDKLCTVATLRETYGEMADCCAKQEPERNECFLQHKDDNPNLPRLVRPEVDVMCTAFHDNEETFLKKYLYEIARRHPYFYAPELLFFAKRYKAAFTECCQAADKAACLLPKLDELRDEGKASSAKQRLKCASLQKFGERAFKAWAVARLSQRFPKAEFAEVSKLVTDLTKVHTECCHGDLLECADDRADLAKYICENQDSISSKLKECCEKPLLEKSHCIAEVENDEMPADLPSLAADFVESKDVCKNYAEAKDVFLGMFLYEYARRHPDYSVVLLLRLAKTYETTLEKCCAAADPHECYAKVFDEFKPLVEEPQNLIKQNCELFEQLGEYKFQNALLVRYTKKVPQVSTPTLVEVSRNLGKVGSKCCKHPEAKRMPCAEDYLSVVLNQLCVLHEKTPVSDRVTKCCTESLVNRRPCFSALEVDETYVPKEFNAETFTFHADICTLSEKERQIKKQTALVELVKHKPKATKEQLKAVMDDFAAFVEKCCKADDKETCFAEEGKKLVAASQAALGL

[7] = DPPH radical scavenging assay; assay type: biochemical; details: compound 0.1 mM
Source text: (§1) For the above reasons, the antioxidant ability of 5–F–saloH and Cu(II) complexes 1–5 has been evaluated via their scavenging activity towards DPPH and ABTS radicals, as well as the ability to reduce H2O2, and in comparison with that of well-known antioxidant agents such as nordihydroguaiaretic acid (NDGA), butylated hydroxytoluene (ΒHΤ), 6–hydroxy–2,5,7,8–tetramethylchromane–2–carboxylic acid (trolox) and L–ascorbic acid (these are the most commonly used standard reference antioxidant agents). The DPPH-radical assay was developed in the 1950s and this method has been used to assess the antioxidant capacity of several metal complexes. The DPPH–scavenging ability of compounds has often been related to their ability to prevent ageing, cancer and inflammation. The ability of a compound to scavenge the cationic ABTS radicals (ABTS^+●) has been considered a measure of its total antioxidant activity. Further, hydrogen peroxide has the ability to penetrate biological membranes and, although it is not very reactive itself, it can sometimes be toxic since it may give rise to hydroxyl radicals in cells. For this reason, the removal of H2O2 is very important for the protection of living systems. When a compound is incubated with H2O2 using a peroxidase assay system, the loss of H2O2 can be measured.
(§2) S1 Antioxidant activity assay
(§3) The antioxidant activity of the compounds was evaluated via their ability to scavenge in vitro free radicals such as DPPH and ABTS and to reduce H 2O2. All the experiments were carried out at least in triplicate and the standard deviation of absorbance was less than 10% of the mean.
S1.1 Determination of the reducing activity of the radical DPPH
To an ethanolic solution of DPPH (0.1 mM) an equal volume solution of the compounds (0.1 mM) in ethanol was added. Absolute ethanol was also used as control solution. The absorbance at 517 nm was recorded at room temperature after 30 and 60 min, in order to examine the possible existence of a potential time-dependence of the DPPH radical scavenging act iv ity [S 1]. The DPPH -scavenging activity of the compounds was expressed as the percentage reduction of the absorbance values of the initial DPPH solution ( DPPH%). N DGA and BHT were used as reference comp ounds. […]

[8] = Reduction of hydrogen peroxide; assay type: biochemical; details: compound 0.1 mM, 10 min, pH 7.4
Source text: as §1, §2, §3
S1.1 Determination of the reducing activity of the radical DPPH […]
S1.3 Reduction of hydrogen peroxide
The ability of the com pounds to reduce hydrogen peroxide (H2O2) was est imated according to the method descr ibed in the literature [S2]. The reaction mixture contained 20 μL of each of the tested compounds (0.1 mM) and 5 μL H2O 2 solution (40 mM) in phosphate buffer (50 mM, pH = 7.4). The absorbance was measure d at 230 nm after 10 min.
The antioxidant activity (reduction of hydrogen peroxide) of the compounds wa s […]
expressed as the percentage decrease of t he init ial H 2O2 solution (H 2O2%). L-ascor b ic ac id (or vitamin C) was use d as a standard. […]
[DNA] = [DNA] + 1 (eq. S1) […]
where [DNA] is the concentration of DNA in base pa irs, εA = Aobsd/[compound ], εf = the extinction coefficient for the free compound and ε b = the extinction coefficient for the compound in the fully bound form. Kb is given by the ratio of slope to the y intercept in plots [DNA]/(εA-εf) versus[DNA].
S2.2CT DNA -binding studie s by viscosity measurements
The interaction of compounds with DNA has been evaluated via the study of the CT DNA viscosity ([DNA] = 0.1 mΜ) in a buffer solution (150 mM NaCl and 15 mM trisodium citrate at pH 7.0) in the presence of increasing amount of complexes (up to the value of r = 0.36). The obtained data are presented as (η/η 0)1/3 versus r, where η is the viscosity of DNA in the presence of the compound, and η0 is the viscosity of DNA alone in buffer solution.
S2.3 EB -displa cement studie s
The competition of the complexes with EB was investigated by fluorescence emission spectroscopy in order to examine whether the compounds can displace EB from its DNA-EB conjugate. The CT DNA-EB complex was formed by pre-treating 20 μM EB and 26 μM CT DNA in buffer (150 mM NaCl and 15 mM trisodium citrate at pH = 7.0).
The possible displacement of EB by the compounds and su bseq uently t he ir intercalating effect was studied by the stepwise addition of a certain amount of the solution of each

[9] = ABTS radical cation scavenging assay; assay type: biochemical; details: compound 0.1 mM, 1 min
Source text: as §1, §2
The antioxidant activity of the compounds was evaluated via their ability to scavenge in vitro free radicals such as DPPH and ABTS and to reduce H 2O2. All the experiments were carried out at least in triplicate and the standard deviation of absorbance was less than 10% of the mean. […]
S1.2 Assay of radical cation ABTS-scavengin g activity
The ABTS assay was performed to determine the activity of the compounds to scavenge the radical cation ABTS. Initially, a water solution of ABTS was prepared (2 mM). ABTS radical cation (ABTS+·) was produced by the reaction of ABTS stock solution with potassium persulfate (0.17 mM) and the mixture was stored in the dark at room temperature for 12-16 h before its use. The ABTS was oxidized incompletely because the stoichiometric reaction ratio of ABTS and potassium persulfate is 1:0.5. The absorbance became maximal and stable only after more than 6 h of reaction although the oxidation of the ABTS started immediately. The radical was stable in this form for more than 2 days when allowed to stand in the dark at room temperature. Afterwards, the ABTS+· solution was diluted in ethanol to an absorbance of 0.70 at 734 nm and 10 μL of diluted compounds or standards (0.1 mM) in DMSO were added. The absorbance was recorded out exactly 1 min after init ial m ix in g [S 1]. The ABTS radical scavenging act ivit y was expressed as the percentage inhibition of the absorbance of the initial ABTS solution (ABTS%). Trolox was used as an appropriate standard. […]

O=Cc1cc(F)ccc1O [5–F–saloH, 5–fluoro–salicylaldehyde]
DPPH% (30 min), % DPPH–scavenging ability ([1]; 30 min): 3.96 ± 1.16% | DPPH% (60 min), % DPPH–scavenging ability ([1]; 60 min): 5.56 ± 1.06% | ABTS%, % ABTS–scavenging activity [2]: 19.57 ± 0.58% | H2O2%, H2O2–reducing activity [3]: 71.84 ± 0.95% | ΔA/Aο, percentage of hyper-/hypo-chromism upon addition of CT DNA (CT DNA; band at 334 nm): −30% | ΔA/Aο, percentage of hyper-/hypo-chromism upon addition of CT DNA (CT DNA; band at 421 nm): > +50% | EB–DNA quenching constant kq [4]: 1.73 (±0.05) × 10^12 M^−1 s^−1 | Stern–Volmer constant Ksv (EB–DNA) [4]: 3.79 (±0.11) × 10^4 M^−1 | ΔΙ/Ιο, percentage of EB–DNA fluorescence quenching [4]: 51.3% | EB–DNA relative fluorescence emission intensity I/Io remaining (% of initial) ([4]; λemission = 592 nm, final value): 48.7% | BSA-binding constant K [5]: 4.31 (±0.31) × 10^4 M^−1 | BSA-quenching constant kq [5]: 1.98 (±0.08) × 10^12 M^−1 s^−1 | ΔΙ/Ιο, quenching of the BSA fluorescence [5]: 25.7% | % relative BSA fluorescence emission intensity I/Io remaining (% of initial) ([5]; final value): 74.3% | HSA-binding constant K [6]: 4.65 (±0.35) × 10^4 M^−1 | HSA-quenching constant kq [6]: 1.96 (±0.07) × 10^12 M^−1 s^−1 | ΔΙ/Ιο, quenching of the HSA fluorescence [6]: 25.7% | % relative HSA fluorescence emission intensity I/Io remaining (% of initial) ([6]; final value): 74.3%

Cc1cc(C(C)(C)C)c(O)c(C(C)(C)C)c1 [BHT, butylated hydroxytoluene, reference compound]
DPPH% (30 min), % DPPH–scavenging ability [7]: 61.30 ± 1.16% | DPPH% (60 min), % DPPH–scavenging ability [7]: 79.78 ± 1.12%

O=C1O[C@H]([C@@H](O)CO)C(O)=C1O [L–ascorbic acid, reference compound]
H2O2%, H2O2–reducing activity [8]: 60.80 ± 0.20%

CC(Cc1ccc(O)c(O)c1)C(C)Cc1ccc(O)c(O)c1 (stereo not drawn) [NDGA, nordihydroguaiaretic acid, reference compound]
DPPH% (30 min), % DPPH–scavenging ability [7]: 87.08 ± 0.12% | DPPH% (60 min), % DPPH–scavenging ability [7]: 87.47 ± 0.12%

Cc1c(C)c2c(c(C)c1O)CCC(C)(C(=O)O)O2 (stereo not drawn) [Trolox, 6–hydroxy–2,5,7,8–tetramethylchromane–2–carboxylic acid, reference compound]
ABTS%, % ABTS–scavenging activity [9]: 98.10 ± 0.48%
